# Data published in PubChem BioAssay (NCI).
#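 The compound was tested at five concentrations on cells cultured in 96-well plates, with a 48-hour exposure period. GI50 = concentration required for 50% inhibition of growth. At the TGI there is no net growth.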
# Key:
# Experiment in all cases: growth of human tumour cells (NCI), 48 h
# 786-0 renal = test system: 786-0 renal
# A498 renal = test system: A498 renal
# A549 NSCLC = test system: A549 NSCLC
# ACHN renal = test system: ACHN renal
# BT-549 breast = test system: BT-549 breast
# CAKI-1 renal = test system: CAKI-1 renal
# COLO 205 colon = test system: COLO 205 colon
# DU-145 prostate = test system: DU-145 prostate
# EKVX NSCLC = test system: EKVX NSCLC
# HCC-2998 colon = test system: HCC-2998 colon
# HCT-116 colon = test system: HCT-116 colon
# HL-60(TB) leukemia = test system: HL-60(TB) leukemia
# HOP-62 NSCLC = test system: HOP-62 NSCLC
# HOP-92 NSCLC = test system: HOP-92 NSCLC
# HS 578T breast = test system: HS 578T breast
# HT29 colon = test system: HT29 colon
# IGROV1 ovarian = test system: IGROV1 ovarian
# K-562 leukemia = test system: K-562 leukemia
# KM12 colon = test system: KM12 colon
# LOX IMVI melanoma = test system: LOX IMVI melanoma
# M14 melanoma = test system: M14 melanoma
# MALME-3M melanoma = test system: MALME-3M melanoma
# MCF7 breast = test system: MCF7 breast
# MDA-MB-231 breast = test system: MDA-MB-231 breast
# MDA-MB-435 = test system: MDA-MB-435
# MOLT-4 leukemia = test system: MOLT-4 leukemia
# NCI-H226 lung = test system: NCI-H226 lung
# NCI-H460 lung = test system: NCI-H460 lung
# NCI-H522 lung = test system: NCI-H522 lung
# NCI/ADR-RES ovarian = test system: NCI/ADR-RES ovarian
# OVCAR-4 ovarian = test system: OVCAR-4 ovarian
# OVCAR-5 ovarian = test system: OVCAR-5 ovarian
# OVCAR-8 ovarian = test system: OVCAR-8 ovarian
# PC-3 prostate = test system: PC-3 prostate
# RPMI-8226 leukemia = test system: RPMI-8226 leukemia
# RXF 393 renal = test system: RXF 393 renal
# SF-268 CNS = test system: SF-268 CNS
# SF-295 CNS = test system: SF-295 CNS
# SF-539 CNS = test system: SF-539 CNS
# SK-MEL-2 melanoma = test system: SK-MEL-2 melanoma
# SK-MEL-28 melanoma = test system: SK-MEL-28 melanoma
# SK-MEL-5 melanoma = test system: SK-MEL-5 melanoma
# SK-OV-3 ovarian = test system: SK-OV-3 ovarian
# SN12C renal = test system: SN12C renal
# SNB-19 CNS = test system: SNB-19 CNS
# SNB-75 CNS = test system: SNB-75 CNS
# SR leukemia = test system: SR leukemia
# SW-620 colon = test system: SW-620 colon
# T-47D breast = test system: T-47D breast
# TK-10 renal = test system: TK-10 renal
# U251 CNS = test system: U251 CNS
# UACC-257 melanoma = test system: UACC-257 melanoma
# UACC-62 melanoma = test system: UACC-62 melanoma
# UO-31 renal = test system: UO-31 renal
smiles,measurement,setting,value
COc1cc(NC2=C(Cl)C(=O)c3nc(C)ccc3C2=O)cc(OC)c1,GI50,786-0 renal,1520 nM
same,TGI,786-0 renal,2880 nM
same,GI50,A498 renal,2350 nM
same,TGI,A498 renal,11400 nM
same,GI50,A549 NSCLC,2830 nM
same,TGI,A549 NSCLC,8970 nM
same,GI50,ACHN renal,1670 nM
same,TGI,ACHN renal,3040 nM
same,GI50,BT-549 breast,1970 nM
same,TGI,BT-549 breast,3400 nM
same,GI50,CAKI-1 renal,1760 nM
same,TGI,CAKI-1 renal,3150 nM
same,GI50,COLO 205 colon,1680 nM
same,TGI,COLO 205 colon,3080 nM
same,GI50,DU-145 prostate,1840 nM
same,TGI,DU-145 prostate,3550 nM
same,GI50,EKVX NSCLC,1600 nM
same,TGI,EKVX NSCLC,3120 nM
same,GI50,HCC-2998 colon,1810 nM
same,TGI,HCC-2998 colon,3260 nM
same,GI50,HCT-116 colon,1530 nM
same,TGI,HCT-116 colon,2880 nM
same,GI50,HL-60(TB) leukemia,1380 nM
same,TGI,HL-60(TB) leukemia,4650 nM
same,GI50,HOP-62 NSCLC,4260 nM
same,TGI,HOP-62 NSCLC,14100 nM
same,GI50,HOP-92 NSCLC,1730 nM
same,TGI,HOP-92 NSCLC,3170 nM
same,GI50,HS 578T breast,2430 nM
same,TGI,HS 578T breast,5780 nM
same,GI50,HT29 colon,1870 nM
same,TGI,HT29 colon,3480 nM
same,GI50,IGROV1 ovarian,1730 nM
same,TGI,IGROV1 ovarian,3550 nM
same,GI50,K-562 leukemia,381 nM
same,TGI,K-562 leukemia,> 100000 nM
same,GI50,KM12 colon,13000 nM
same,TGI,KM12 colon,26600 nM
same,GI50,LOX IMVI melanoma,1100 nM
same,TGI,LOX IMVI melanoma,2320 nM
same,GI50,M14 melanoma,1690 nM
same,TGI,M14 melanoma,3090 nM
same,GI50,MALME-3M melanoma,1760 nM
same,TGI,MALME-3M melanoma,3280 nM
same,GI50,MCF7 breast,1820 nM
same,TGI,MCF7 breast,5330 nM
same,GI50,MDA-MB-231 breast,1460 nM
same,TGI,MDA-MB-231 breast,3080 nM
same,GI50,MDA-MB-435,1720 nM
same,TGI,MDA-MB-435,3570 nM
same,GI50,MOLT-4 leukemia,1500 nM
same,TGI,MOLT-4 leukemia,7000 nM
same,GI50,NCI-H226 lung,2820 nM
same,TGI,NCI-H226 lung,8350 nM
same,GI50,NCI-H460 lung,2680 nM
same,TGI,NCI-H460 lung,8070 nM
same,GI50,NCI-H522 lung,1560 nM
same,TGI,NCI-H522 lung,3060 nM
same,GI50,NCI/ADR-RES ovarian,1810 nM
same,TGI,NCI/ADR-RES ovarian,4470 nM
same,GI50,OVCAR-4 ovarian,1400 nM
same,TGI,OVCAR-4 ovarian,2820 nM
same,GI50,OVCAR-5 ovarian,2380 nM
same,TGI,OVCAR-5 ovarian,5790 nM
same,GI50,OVCAR-8 ovarian,1640 nM
same,TGI,OVCAR-8 ovarian,3280 nM
same,GI50,PC-3 prostate,2560 nM
same,TGI,PC-3 prostate,10400 nM
same,GI50,RPMI-8226 leukemia,1790 nM
same,TGI,RPMI-8226 leukemia,5190 nM
same,GI50,RXF 393 renal,1630 nM
same,TGI,RXF 393 renal,2990 nM
same,GI50,SF-268 CNS,3250 nM
same,TGI,SF-268 CNS,14400 nM
same,GI50,SF-295 CNS,1990 nM
same,TGI,SF-295 CNS,5410 nM
same,GI50,SF-539 CNS,1790 nM
same,TGI,SF-539 CNS,3220 nM
same,GI50,SK-MEL-2 melanoma,1590 nM
same,TGI,SK-MEL-2 melanoma,3100 nM
same,GI50,SK-MEL-28 melanoma,1790 nM
same,TGI,SK-MEL-28 melanoma,3230 nM
same,GI50,SK-MEL-5 melanoma,1620 nM
same,TGI,SK-MEL-5 melanoma,2970 nM
same,GI50,SK-OV-3 ovarian,12600 nM
same,TGI,SK-OV-3 ovarian,25100 nM
same,GI50,SN12C renal,1710 nM
same,TGI,SN12C renal,3250 nM
same,GI50,SNB-19 CNS,5820 nM
same,TGI,SNB-19 CNS,18800 nM
same,GI50,SNB-75 CNS,1940 nM
same,TGI,SNB-75 CNS,5370 nM
same,GI50,SR leukemia,350 nM
same,TGI,SR leukemia,2430 nM
same,GI50,SW-620 colon,1760 nM
same,TGI,SW-620 colon,3470 nM
same,GI50,T-47D breast,1500 nM
same,TGI,T-47D breast,3620 nM
same,GI50,TK-10 renal,2320 nM
same,TGI,TK-10 renal,3780 nM
same,GI50,U251 CNS,1920 nM
same,TGI,U251 CNS,4440 nM
same,GI50,UACC-257 melanoma,1510 nM
same,TGI,UACC-257 melanoma,2850 nM
same,GI50,UACC-62 melanoma,1770 nM
same,TGI,UACC-62 melanoma,3420 nM
same,GI50,UO-31 renal,1690 nM
same,TGI,UO-31 renal,3060 nM
NC(N)=Nc1ccc(Oc2cccc(Oc3ccc(Cl)c(C(F)(F)F)c3)c2)cn1,GI50,RXF 393 renal,1790 nM
same,TGI,RXF 393 renal,3430 nM
same,GI50,SNB-75 CNS,1330 nM
same,TGI,SNB-75 CNS,2670 nM
